According to ChEMBL document CHEMBL1955751, “Structure-activity relationship of the 7-hydroxy benzimidazole analogs as glycogen synthase kinase 3β inhibitor” (Bioorg Med Chem Lett, 2012):

Assays:
[1] = biological target: T1, Glycogen synthase kinase-3 beta (Homo sapiens, UniProt P49841); test: Inhibition of GSK3-beta assessed as residual activity at 5 uM
Target sequence in this assay (P49841 whole entry, looked up): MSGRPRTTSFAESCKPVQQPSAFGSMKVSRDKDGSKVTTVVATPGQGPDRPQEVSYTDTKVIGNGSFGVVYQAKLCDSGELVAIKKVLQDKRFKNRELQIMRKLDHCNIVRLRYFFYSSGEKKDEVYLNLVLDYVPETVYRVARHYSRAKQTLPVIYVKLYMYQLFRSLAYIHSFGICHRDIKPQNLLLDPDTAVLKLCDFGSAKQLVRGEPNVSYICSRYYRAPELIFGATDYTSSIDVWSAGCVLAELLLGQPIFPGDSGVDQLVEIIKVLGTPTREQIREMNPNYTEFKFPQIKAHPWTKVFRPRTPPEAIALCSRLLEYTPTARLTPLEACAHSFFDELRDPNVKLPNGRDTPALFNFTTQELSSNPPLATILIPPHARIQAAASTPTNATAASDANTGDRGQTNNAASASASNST

[2] = biological target: T1, Glycogen synthase kinase-3 beta; test: Inhibition of GSK3-beta
Target sequence in this assay (P49841 whole entry): as the sequence (P49841 whole entry, looked up) above

[3] = biological target: T1, Glycogen synthase kinase-3 beta; test: Inhibition of GSK3-beta in human RD cells; format: cell-based
Target sequence in this assay (P49841 whole entry): as the sequence (P49841 whole entry, looked up) above

[4] = biological target: Mitogen-activated protein kinase 3 (Homo sapiens) (UniProt P27361); test: Inhibition of ERK1 assessed as residual activity at 5 uM
[5] = biological target: Vascular endothelial growth factor receptor 2 (Homo sapiens) (UniProt P35968); test: Inhibition of KDR assessed as residual activity at 5 uM
[6] = biological target: Mitogen-activated protein kinase 1 (Homo sapiens) (UniProt P28482); test: Inhibition of ERK2 assessed as residual activity at 5 uM
[7] = Inhibition of AKT assessed as residual activity at 5 uM
[8] = Ratio of CCIC50 for human RD cells to EC50 for GSK3-beta in human RD cells
[9] = biological target: T2, Inhibitor of nuclear factor kappa-B kinase subunit beta (Homo sapiens) (UniProt O14920); test: Inhibition of IKK-beta assessed as residual activity at 5 uM
T2 sequence (whole entry): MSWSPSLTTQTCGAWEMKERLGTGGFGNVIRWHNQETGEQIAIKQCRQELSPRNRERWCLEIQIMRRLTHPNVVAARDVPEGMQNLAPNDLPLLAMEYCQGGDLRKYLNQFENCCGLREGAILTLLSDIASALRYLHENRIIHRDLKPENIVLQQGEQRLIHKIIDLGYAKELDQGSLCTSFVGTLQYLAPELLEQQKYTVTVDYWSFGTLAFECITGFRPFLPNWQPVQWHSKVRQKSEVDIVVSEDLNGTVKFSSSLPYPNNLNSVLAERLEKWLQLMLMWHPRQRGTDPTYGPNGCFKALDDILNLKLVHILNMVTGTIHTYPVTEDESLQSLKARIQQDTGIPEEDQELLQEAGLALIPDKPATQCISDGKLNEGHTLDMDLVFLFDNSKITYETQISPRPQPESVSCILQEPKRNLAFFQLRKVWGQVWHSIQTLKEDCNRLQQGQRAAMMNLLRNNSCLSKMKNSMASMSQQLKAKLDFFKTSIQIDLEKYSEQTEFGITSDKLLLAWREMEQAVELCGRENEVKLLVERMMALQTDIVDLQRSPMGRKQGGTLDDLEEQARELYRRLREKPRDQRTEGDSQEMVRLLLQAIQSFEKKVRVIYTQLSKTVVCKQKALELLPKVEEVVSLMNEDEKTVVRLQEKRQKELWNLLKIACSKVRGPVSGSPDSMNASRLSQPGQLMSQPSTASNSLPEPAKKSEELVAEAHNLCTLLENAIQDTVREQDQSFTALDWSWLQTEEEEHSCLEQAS

[10] = biological target: Cyclin-dependent kinase 4 (Homo sapiens) (UniProt P11802); test: Inhibition of CDK4 assessed as residual activity at 5 uM
[11] = biological target: Cyclin-dependent kinase 1 (Homo sapiens) (UniProt P06493); test: Inhibition of CDK1 assessed as residual activity at 5 uM
[12] = Cytotoxicity against human RD cells by MTS assay; format: cell-based; conditions: read-out: CCIC50
[13] = biological target: T1, Glycogen synthase kinase-3 beta; test: Inhibition of GSK3-beta in human RD cells assessed as glycogen synthase activation measured after 24 hrs under serum starving condition; format: cell-based
Target sequence in this assay (P49841 whole entry): as the sequence (P49841 whole entry, looked up) above

Chain of Cyclin-dependent kinase 4 (Homo sapiens) (P11802 whole entry): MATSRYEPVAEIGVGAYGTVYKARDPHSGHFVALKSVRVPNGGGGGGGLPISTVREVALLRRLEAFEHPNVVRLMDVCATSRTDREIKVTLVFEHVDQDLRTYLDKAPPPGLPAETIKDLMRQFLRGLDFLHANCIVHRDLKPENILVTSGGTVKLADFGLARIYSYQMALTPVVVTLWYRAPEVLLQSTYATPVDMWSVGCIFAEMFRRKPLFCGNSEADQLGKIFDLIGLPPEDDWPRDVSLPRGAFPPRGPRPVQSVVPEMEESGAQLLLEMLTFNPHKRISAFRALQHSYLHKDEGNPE
Chain of Mitogen-activated protein kinase 3 (Homo sapiens) (P27361 whole entry): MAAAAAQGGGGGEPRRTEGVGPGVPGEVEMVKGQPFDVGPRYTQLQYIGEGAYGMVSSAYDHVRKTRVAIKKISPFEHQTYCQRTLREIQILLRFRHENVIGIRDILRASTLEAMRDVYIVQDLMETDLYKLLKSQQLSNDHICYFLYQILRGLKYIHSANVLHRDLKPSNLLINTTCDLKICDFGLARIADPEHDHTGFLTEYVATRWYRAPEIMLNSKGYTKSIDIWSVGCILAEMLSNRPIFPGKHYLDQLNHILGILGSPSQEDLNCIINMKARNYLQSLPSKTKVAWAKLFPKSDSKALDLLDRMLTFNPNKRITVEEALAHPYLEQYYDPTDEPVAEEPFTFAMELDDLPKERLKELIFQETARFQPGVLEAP
Chain of Vascular endothelial growth factor receptor 2 (Homo sapiens) (P35968 whole entry): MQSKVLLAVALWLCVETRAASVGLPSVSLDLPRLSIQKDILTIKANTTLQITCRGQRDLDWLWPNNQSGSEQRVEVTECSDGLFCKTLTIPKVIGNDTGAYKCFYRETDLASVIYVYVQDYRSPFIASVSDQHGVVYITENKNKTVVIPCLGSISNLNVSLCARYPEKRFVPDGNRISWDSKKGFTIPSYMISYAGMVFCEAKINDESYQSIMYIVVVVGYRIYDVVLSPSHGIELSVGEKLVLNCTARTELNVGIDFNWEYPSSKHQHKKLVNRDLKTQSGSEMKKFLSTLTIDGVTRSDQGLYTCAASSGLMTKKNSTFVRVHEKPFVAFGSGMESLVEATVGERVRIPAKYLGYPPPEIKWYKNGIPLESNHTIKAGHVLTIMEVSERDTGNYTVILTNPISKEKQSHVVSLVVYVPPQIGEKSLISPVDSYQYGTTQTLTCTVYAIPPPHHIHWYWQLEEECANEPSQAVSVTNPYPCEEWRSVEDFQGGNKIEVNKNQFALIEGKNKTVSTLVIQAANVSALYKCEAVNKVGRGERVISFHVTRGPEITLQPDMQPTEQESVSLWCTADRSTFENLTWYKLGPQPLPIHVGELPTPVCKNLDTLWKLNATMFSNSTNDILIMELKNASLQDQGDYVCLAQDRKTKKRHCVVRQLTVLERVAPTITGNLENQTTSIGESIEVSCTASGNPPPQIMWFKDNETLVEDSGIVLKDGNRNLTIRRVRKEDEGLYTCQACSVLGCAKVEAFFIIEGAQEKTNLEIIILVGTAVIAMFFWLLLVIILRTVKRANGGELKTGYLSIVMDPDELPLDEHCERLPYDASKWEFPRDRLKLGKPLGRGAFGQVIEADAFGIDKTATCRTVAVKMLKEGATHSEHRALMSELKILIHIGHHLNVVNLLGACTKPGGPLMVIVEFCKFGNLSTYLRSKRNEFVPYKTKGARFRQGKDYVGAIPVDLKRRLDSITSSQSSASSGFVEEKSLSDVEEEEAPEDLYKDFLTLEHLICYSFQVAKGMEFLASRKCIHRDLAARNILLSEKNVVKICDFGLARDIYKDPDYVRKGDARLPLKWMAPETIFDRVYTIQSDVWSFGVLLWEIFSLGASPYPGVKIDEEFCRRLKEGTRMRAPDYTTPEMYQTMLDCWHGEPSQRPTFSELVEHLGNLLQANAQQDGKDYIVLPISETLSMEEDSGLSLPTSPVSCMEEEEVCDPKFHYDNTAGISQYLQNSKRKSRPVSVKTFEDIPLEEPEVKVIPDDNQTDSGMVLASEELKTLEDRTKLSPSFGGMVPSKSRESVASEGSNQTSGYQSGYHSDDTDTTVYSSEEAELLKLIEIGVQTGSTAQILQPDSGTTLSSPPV
Chain of Cyclin-dependent kinase 1 (Homo sapiens) (P06493 whole entry, looked up): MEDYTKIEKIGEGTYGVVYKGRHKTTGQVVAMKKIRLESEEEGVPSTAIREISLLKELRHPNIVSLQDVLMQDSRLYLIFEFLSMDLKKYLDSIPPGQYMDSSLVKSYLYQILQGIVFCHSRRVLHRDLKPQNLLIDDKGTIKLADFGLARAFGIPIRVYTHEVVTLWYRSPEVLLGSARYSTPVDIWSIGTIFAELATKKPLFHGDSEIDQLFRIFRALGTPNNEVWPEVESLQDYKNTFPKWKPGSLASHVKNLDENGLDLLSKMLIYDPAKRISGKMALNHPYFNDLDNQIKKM
Chain of Mitogen-activated protein kinase 1 (Homo sapiens) (P28482 whole entry): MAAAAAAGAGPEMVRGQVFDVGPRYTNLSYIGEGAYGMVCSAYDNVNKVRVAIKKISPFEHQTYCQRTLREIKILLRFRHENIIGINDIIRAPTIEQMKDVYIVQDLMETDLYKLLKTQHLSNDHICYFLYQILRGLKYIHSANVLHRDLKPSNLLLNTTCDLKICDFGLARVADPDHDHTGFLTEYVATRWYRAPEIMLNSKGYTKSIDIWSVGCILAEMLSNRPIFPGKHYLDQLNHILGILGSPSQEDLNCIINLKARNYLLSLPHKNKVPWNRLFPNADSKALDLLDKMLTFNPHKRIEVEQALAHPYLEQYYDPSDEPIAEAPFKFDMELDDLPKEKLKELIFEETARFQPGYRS

Row | Structure (SMILES) | Activity [1] | IC50 [2] | EC50 [3] | Ratio [8] | CC50 [12] | also measured
1 | NC(=O)c1ccc(O)c2[nH]c(Cc3ccccc3)nc12 | 75% | – | – | – | – | –
2 | CS(=O)(=O)Nc1ccc(CCNC(=O)c2ccc(O)c3[nH]c(Cc4ccccc4)nc23)cc1 | 18% | 1600 nM | 3900 nM | – | – | –
3 | O=C(NCCCn1cnc(Cl)c1Cl)c1ccc(O)c2[nH]c(-c3ccco3)nc12 | -1.7% | – | – | 1400 | – | Activity [4]: 53.9%; Activity [5]: 83.6%; Activity [6]: 70.6%; Activity [7]: 92.3%; Activity [9]: 74.7%; Activity [10]: 38.6%; Activity [11]: 65.2%
4 | Cc1nc2c(O)ccc(C(=O)NCCc3ccc(NS(C)(=O)=O)cc3)c2[nH]1 | – | – | 21000 nM | – | – | –
5 | Cc1ccc(S(=O)(=O)Nc2ccc(CCNC(=O)c3ccc(O)c4[nH]c(Cc5ccccc5)nc34)cc2)cc1 | 36% | 2800 nM | – | – | – | –
6 | O=C(NCCCn1ccnc1)c1ccc(O)c2[nH]c(-c3ccc(Cl)cc3Cl)nc12 | – | 15 nM | 240 nM | 187 | 45000 nM | –
7 | CS(=O)(=O)Nc1ccc(CCNC(=O)c2ccc(O)c3[nH]c(-c4ccc(F)cc4F)nc23)cc1 | -0.58% | – | – | – | – | Activity [4]: 73.4%; Activity [5]: 114%; Activity [6]: 91.4%; Activity [9]: 93.1%; Activity [10]: 49.2%
8 | Cc1cn(CCCNC(=O)c2ccc(O)c3[nH]c(-c4cccs4)nc23)cn1 | – | 50 nM | 310 nM | >322 | > 100000 nM | –
9 | Cc1ccc(S(=O)(=O)Nc2ccc(CCNC(=O)c3ccc(O)c4[nH]c(-c5ccc(F)cc5)nc34)cc2)cc1 | – | – | 95 nM | 184 | 17500 nM | –
10 | O=C(NCCCn1cnc(Cl)c1Cl)c1ccc(O)c2[nH]c(-c3cccs3)nc12 | – | 8 nM | 34 nM | >2941 | > 100000 nM | –
11 | O=C(NCCCn1cnc(Cl)c1Cl)c1ccc(O)c2nc(-c3ccco3)[nH]c12 | – | 10 nM | 50 nM | – | 70000 nM | EC50 [13]: 40 nM
12 | O=C(O)COc1cccc(CCCNC(=O)c2ccc(O)c3nc(-c4ccc(Cl)cc4)[nH]c23)c1 | – | 31 nM | 250 nM | – | 17000 nM | EC50 [13]: 80 nM
13 | O=C(NCCc1ccc([N+](=O)[O-])cc1)c1ccc(O)c2nc(Cc3ccccc3)[nH]c12 | – | 2000 nM | – | – | – | –
14 | CS(=O)(=O)Nc1ccc(CCNC(=O)c2ccc(O)c3[nH]c(C4CCCC4)nc23)cc1 | – | 44 nM | 2700 nM | – | – | –
15 | CS(=O)(=O)Nc1ccc(CCNC(=O)c2ccc(O)c3[nH]c(-c4ccc(Cl)cc4)nc23)cc1 | – | 7 nM | 120 nM | 233 | 28000 nM | –
16 | CS(=O)(=O)Nc1ccc(CCNC(=O)c2ccc(O)c3nc(C4CC4)[nH]c23)cc1 | – | 140 nM | 4800 nM | – | – | –
17 | O=C(NCCCn1cnc(Cl)c1Cl)c1ccc(O)c2nc(-c3ccc(Cl)cc3Cl)[nH]c12 | – | 6 nM | 110 nM | – | 60000 nM | EC50 [13]: 170 nM
18 | O=C(NCCCn1ccnc1)c1ccc(O)c2[nH]c(-c3ccc(F)c(Cl)c3)nc12 | 1% | – | – | >204 | – | Activity [4]: 66.5%; Activity [5]: 85.3%; Activity [6]: 76%; Activity [7]: 83.9%; Activity [9]: 80%; Activity [10]: 52.4%; Activity [11]: 71.3%
19 | CS(=O)(=O)Nc1ccc(CCNC(=O)c2ccc(O)c3nc(-c4ccc(F)cc4F)[nH]c23)cc1 | – | – | 580 nM | – | – | EC50 [13]: 13 nM
20 | CCN1CCN(C(=O)c2ccc(CCNC(=O)c3ccc(O)c4[nH]c(-c5cccs5)nc34)cc2)CC1 | 0.9% | – | – | 127 | – | Activity [4]: 80.9%; Activity [5]: 60.8%; Activity [6]: 80.7%; Activity [7]: 96%; Activity [9]: 72.7%; Activity [10]: 68.2%; Activity [11]: 70.4%
21 | O=C(NCCCn1cnc(Cl)c1Cl)c1ccc(O)c2[nH]c(-c3ccc(Cl)cc3Cl)nc12 | 0% | – | – | 545 | – | Activity [4]: 97.9%; Activity [5]: 109%; Activity [6]: 102%; Activity [9]: 80.7%; Activity [10]: 74.9%
22 | CS(=O)(=O)Nc1ccc(CCNC(=O)c2ccc(O)c3[nH]c(-c4ccc(F)cc4Cl)nc23)cc1 | – | 20 nM | 230 nM | – | – | –
23 | CCCCNC(=O)c1ccc(O)c2[nH]c(Cc3ccccc3)nc12 | 63% | – | – | – | – | –
24 | O=C(NCCc1ccc([N+](=O)[O-])cc1)c1ccc(O)c2[nH]c(Cc3ccccc3)nc12 | 32% | – | – | – | – | –
25 | CS(=O)(=O)Nc1ccc(CCNC(=O)c2ccc(O)c3[nH]c(-c4ccc(F)cc4)nc23)cc1 | – | – | 400 nM | – | – | –
26 | O=C(NCc1cccc(O)c1)c1ccc(O)c2[nH]c(Cc3ccccc3)nc12 | 53% | – | – | – | – | –
27 | O=C(O)COc1cccc(CCCNC(=O)c2ccc(O)c3[nH]c(-c4ccc(Cl)cc4)nc23)c1 | 0.3% | – | – | 68 | – | Activity [4]: 80%; Activity [5]: 54.5%; Activity [6]: 104%; Activity [7]: 100%; Activity [9]: 87.3%; Activity [10]: 58.6%; Activity [11]: 90.9%
28 | O=C(NCCCn1ccnc1)c1ccc(O)c2nc(-c3ccc(F)c(Cl)c3)[nH]c12 | – | – | 490 nM | – | > 100000 nM | EC50 [13]: 100 nM
29 | CS(=O)(=O)Nc1ccc(CCNC(=O)c2ccc(O)c3nc(-c4ccncc4)[nH]c23)cc1 | – | 110 nM | 25000 nM | – | – | –
30 | CCN1CCN(C(=O)c2ccc(CCNC(=O)c3ccc(O)c4nc(-c5cccs5)[nH]c34)cc2)CC1 | – | 46 nM | 400 nM | – | 51000 nM | –
